Test results from patent US4153709A, “N-Heterocyclic ureas as immune regulants” (Eli Lilly and Company, priority 1977, dated 1979).

What was measured:
[1] = tested on: antibody to sheep red blood cells; assay: 75 percent reduction of control antibody titer in mice by subcutaneous, percutaneous and oral routes (Table 16); assay type: in vivo, male Swiss mice; conditions: Mus musculus, Erythrocyte, sc; subcutaneous; *seven doses, once daily, commencing the day of antigen administration; read-out: Lowest Dose Producing 75% Immunosuppression, Subcutaneous
Description: Subcutaneous, percutaneous, and oral activity have been achieved as indicated in Table 16 which follows employing representative compounds from the above entitled application. […] Except as indicated, the tests were performed using groups of five 20-gram male Swiss mice injected with 5×10^7 sheep red blood cells intravenously for each drug level. Ten (daily) administrations of drug were made commencing three days prior to red blood cell injection. On the day following the final treatment (7 days after red blood cell injection) the animals were bled by cardiac puncture, the sera from each five-mouse-group were pooled, and antibody titers of these serum pools and corresponding serum pools from control (untreated) mouse groups were determined. The results are expressed as the minimum drug dose effecting 75 percent reduction of control antibody titer: […]

[2] = tested on: antibody response to sheep blood cells (hemaglutination titer); assay: Immune regulating test: suppression of hemaglutination titer by 4-fold factor in mice (i.p. drug, i.p. sheep blood cells), Tables 1-15; assay type: in vivo, Swiss mice; conditions: Mus musculus, ip, 192 h, × 3, intraperitoneal, minimum dose to suppress the hemaglutination titer by a 4-fold factor, 8 days after antigen, read-out: Immuno-Suppressant ED4-Fold
Description: The ability of compounds according to the above formulas to alter immune mechanisms in a host animal was measured by their activity according to the following test. Groups of five 20-gram Swiss mice were injected intraperitoneally with standardized suspensions of an antigen--in this instance sheep blook cells. […] Eight days after injection of the antigen, the mice were bled and the sera from each group pooled. Antibody determinations were made on the serum pools by a hemaglutination pattern procedure and comparisons made between treated and control animals. In Tables 1-18 which follow, the activity of the compounds listed therein is given in terms of the minimum dose of drug necessary to suppress the hemaglutination titer by a 4-fold factor in the treated mice as compared with control titers.

Row | SMILES | minimal effective dose [1] | minimal effective dose [2]
1 | O=C(Nc1ccccc1)Nc1nc2ccccc2[nH]1 [Table 1: phenyl, H, 1-(2-benzimidazolyl)-3-phenyl urea] | 31.5 mg/kg | 12.5 mg/kg
2 | O=C(Nc1ccc(F)cc1)Nc1nc2c(ccc3ccccc32)[nH]1 [Table 10: p-fluorophenyl] | – | 25 mg/kg
3 | O=C(Nc1ccccc1)Nc1nc2c(ccc3ccccc32)[nH]1 [Table 10: phenyl] | – | 50 mg/kg
4 | O=C(Nc1nc2c(ccc3ccccc32)[nH]1)Nc1cccc2ccccc12 [Table 10: α-naphthyl] | – | > 6.2 mg/kg
5 | O=C(Nc1nc2ccccc2s1)Nc1cc(Cl)ccc1Cl [Table 11: 2,5-dichlorophenyl, H, S] | – | 12.5 mg/kg
6 | O=C(Nc1ccc(Cl)c(Cl)c1)Nc1nc2ccccc2s1 [Table 11: 3,4-dichlorophenyl, H, S] | – | 12.5 mg/kg
7 | O=C(Nc1cccc(Cl)c1)Nc1nc2c(Cl)cccc2s1 [Table 11: m-chlorophenyl, 4-Cl, S] | – | < 50 mg/kg
8 | O=C(Nc1cccc(Cl)c1)Nc1nc2cc(Cl)ccc2o1 [Table 11: m-chlorophenyl, 5-Cl, O] | – | 400 mg/kg
9 | COc1ccc2nc(NC(=O)Nc3cccc(Cl)c3)sc2c1 [Table 11: m-chlorophenyl, 6-CH3 O, S] | – | 12.5 mg/kg
10 | O=C(Nc1cccc(Cl)c1)Nc1nc2ccccc2s1 [Table 11: m-chlorophenyl, H, S] | – | 1.6 mg/kg
11 | Cc1cccc(NC(=O)Nc2nc3cc(C)c(C)cc3s2)c1 [Table 11: m-tolyl, 5,6-dimethyl, S] | – | 25 mg/kg
12 | COc1ccc2nc(NC(=O)Nc3cccc(C)c3)sc2c1 [Table 11: m-tolyl, 6-CH3 O, S] | – | < 25 mg/kg
13 | O=C(Nc1cccc(C(F)(F)F)c1)Nc1nc2ccccc2s1 [Table 11: m-trifluoromethylphenyl, H, S] | – | < 50 mg/kg
14 | COc1ccccc1NC(=O)Nc1nc2ccccc2s1 [Table 11: o-anisyl, H, S] | – | 50 mg/kg
15 | COc1ccc2nc(NC(=O)Nc3ccccc3Cl)sc2c1 [Table 11: o-chlorophenyl, 6-CH3 O, S] | – | < 50 mg/kg
16 | O=C(Nc1nc2ccccc2s1)Nc1ccccc1Cl [Table 11: o-chlorophenyl, H, S] | – | < 50 mg/kg
17 | CCOc1ccccc1NC(=O)Nc1nc2ccccc2s1 [Table 11: o-ethoxyphenyl, H, S] | – | < 50 mg/kg
18 | O=C(Nc1nc2ccccc2s1)Nc1ccccc1F [Table 11: o-fluorophenyl, H, S] | – | < 6.2 mg/kg
19 | Cc1cc2nc(NC(=O)Nc3ccccc3C)sc2cc1C [Table 11: o-tolyl, 5,6-dimethyl, S] | – | < 25 mg/kg
20 | COc1ccc2nc(NC(=O)Nc3ccccc3C)sc2c1 [Table 11: o-tolyl, 6-CH3 O, S] | – | < 50 mg/kg
21 | Cc1ccccc1NC(=O)Nc1nc2ccccc2s1 [Table 11: o-tolyl, H, S] | – | < 50 mg/kg

Row | SMILES | minimal effective dose [1] | minimal effective dose [2]
22 | COc1ccc(NC(=O)Nc2nc3ccccc3s2)cc1 [Table 11: p-anisyl, H, S] | – | 50 mg/kg
23 | Cc1cc2nc(NC(=O)Nc3ccc(Br)cc3)sc2cc1C [Table 11: p-bromophenyl, 5,6-dimethyl, S] | – | 100 mg/kg
24 | COc1ccc2nc(NC(=O)Nc3ccc(Br)cc3)sc2c1 [Table 11: p-bromophenyl, 6-CH3 O, S] | – | 100 mg/kg
25 | O=C(Nc1ccc(Br)cc1)Nc1nc2ccccc2s1 [Table 11: p-bromophenyl, H, S] | – | 100 mg/kg
26 | COc1ccc2nc(NC(=O)Nc3ccc(Cl)cc3)sc2c1 [Table 11: p-chlorophenyl, 6-CH3 O, S] | – | < 50 mg/kg
27 | O=C(Nc1ccc(Cl)cc1)Nc1nc2ccccc2s1 [Table 11: p-chlorophenyl, H, S] | – | < 6.2 mg/kg
28 | O=C(Nc1ccc(F)cc1)Nc1nc2ccccc2s1 [Table 11: p-fluorophenyl, H, S] | – | < 25 mg/kg
29 | Cc1ccc(NC(=O)Nc2nc3cc(C)c(C)cc3s2)cc1 [Table 11: p-tolyl, 5,6-dimethyl, S] | – | 100 mg/kg
30 | COc1ccc2nc(NC(=O)Nc3ccc(C)cc3)sc2c1 [Table 11: p-tolyl, 6-CH3 O, S] | – | < 100 mg/kg
31 | Cc1ccc(NC(=O)Nc2nc3ccccc3s2)cc1 [Table 11: p-tolyl, H, S] | – | 100 mg/kg
32 | O=C(Nc1ccccc1)Nc1nc2c(Cl)cccc2s1 [Table 11: phenyl, 4-Cl, S] | – | < 12.5 mg/kg
33 | Cc1cc2nc(NC(=O)Nc3ccccc3)sc2cc1C [Table 11: phenyl, 5,6-dimethyl, S] | – | 100 mg/kg
34 | O=C(Nc1ccccc1)Nc1nc2cc(Cl)ccc2o1 [Table 11: phenyl, 5-Cl, O] | – | 200 mg/kg
35 | O=C(Nc1ccccc1)Nc1nc2ccccc2o1 [Table 11: phenyl, H, O] | – | 50 mg/kg
36 | Cc1cc2nc(NC(=O)Nc3cccc4ccccc34)sc2cc1C [Table 11: α-naphthyl, 5,6-dimethyl, S] | – | 50 mg/kg
37 | O=C(Nc1nc2cc(Cl)ccc2o1)Nc1cccc2ccccc12 [Table 11: α-naphthyl, 5-Cl, O] | – | 200 mg/kg
38 | COc1ccc2nc(NC(=O)Nc3cccc4ccccc34)sc2c1 [Table 11: α-naphthyl, 6-CH3 O, S] | – | < 50 mg/kg
39 | O=C(Nc1nc2ccccc2o1)Nc1cccc2ccccc12 [Table 11: α-naphthyl, H, O] | – | 50 mg/kg
40 | CN(C(=O)Nc1ccc(Cl)cc1)c1nc2ccccc2s1 [Table 12: p-chlorophenyl] | – | < 50 mg/kg
41 | CN(C(=O)Nc1ccccc1)c1nc2ccccc2s1 [Table 12: phenyl] | – | 50 mg/kg
42 | CN(C(=O)Nc1cccc2ccccc12)c1nc2ccccc2s1 [Table 12: α-naphthyl] | – | 50 mg/kg

Row | SMILES | minimal effective dose [1] | minimal effective dose [2]
43 | O=C(Nc1nc2c(s1)CCCC2)Nc1cccc2ccccc12 [Table 13: α-naphthyl] | – | < 50 mg/kg
44 | O=C(Nc1nc2c(ccc3ccccc32)s1)Nc1cc(Cl)ccc1Cl [Table 14: 2,5-dichlorophenyl] | – | 100 mg/kg
45 | O=C(Nc1ccc(Cl)c(Cl)c1)Nc1nc2c(ccc3ccccc32)s1 [Table 14: 3,4-dichlorophenyl] | – | 3.1 mg/kg
46 | O=C(Nc1cccc(Cl)c1)Nc1nc2c(ccc3ccccc32)s1 [Table 14: m-chlorophenyl] | – | < 1.6 mg/kg
47 | Cc1cccc(NC(=O)Nc2nc3c(ccc4ccccc43)s2)c1 [Table 14: m-tolyl] | – | 3.1 mg/kg
48 | O=C(Nc1cccc(C(F)(F)F)c1)Nc1nc2c(ccc3ccccc32)s1 [Table 14: m-trifluoromethylphenyl] | – | < 6.2 mg/kg
49 | O=C(Nc1nc2c(ccc3ccccc32)s1)Nc1ccccc1Cl [Table 14: o-chlorophenyl] | – | 6.2 mg/kg
50 | O=C(Nc1nc2c(ccc3ccccc32)s1)Nc1ccccc1F [Table 14: o-fluorophenyl] | – | 3.1 mg/kg
51 | Cc1ccccc1NC(=O)Nc1nc2c(ccc3ccccc32)s1 [Table 14: o-tolyl] | – | < 1.6 mg/kg
52 | O=C(Nc1ccc(Br)cc1)Nc1nc2c(ccc3ccccc32)s1 [Table 14: p-bromophenyl] | – | < 50 mg/kg
53 | O=C(Nc1ccc(Cl)cc1)Nc1nc2c(ccc3ccccc32)s1 [Table 14: p-chlorophenyl] | – | < 100 mg/kg
54 | O=C(Nc1ccc(F)cc1)Nc1nc2c(ccc3ccccc32)s1 [Table 14: p-fluorophenyl] | – | 12.5 mg/kg
55 | Cc1ccc(NC(=O)Nc2nc3c(ccc4ccccc43)s2)cc1 [Table 14: p-tolyl] | – | 6.2 mg/kg
56 | O=C(Nc1ccccc1)Nc1nc2c(ccc3ccccc32)s1 [Table 14: phenyl] | – | < 12.5 mg/kg
57 | O=C(Nc1nc2c(ccc3ccccc32)s1)Nc1cccc2ccccc12 [Table 14: α-naphthyl] | – | 3.1 mg/kg
58 | O=C(Nc1ccc(Br)cc1)Nc1nc2ccc3ccccc3c2s1 [Table 15: p-bromophenyl] | – | 50 mg/kg
59 | Cc1ccc(NC(=O)Nc2nc3ccc4ccccc4c3s2)cc1 [Table 15: p-tolyl] | – | > 25 mg/kg
60 | O=C(Nc1ccccc1)Nc1nc2ccc3ccccc3c2s1 [Table 15: phenyl] | – | 0.8 mg/kg
61 | O=C(Nc1nc2ccc3ccccc3c2s1)Nc1cccc2ccccc12 [Table 15: α-naphthyl] | – | 0.4 mg/kg
